Source: patent publication US20240034761A1, “REGENERATION OF MAMMALIAN TISSUES USING SYNTHETIC IMMODULINS” (priority 2022, published 2024)
Marks after values point to notes of the source that are not given here. Peptide text beside a SMILES is read from it.

Columns and labels:
[1] = Plate binding of FITC-labelled hyaluronic acid to immobilised biotinylated peptides; conditions: 400 ng peptide/well, 1 ug FITC-HMW-HA, PBS; normalized to immX3 peptide binding = 100
Description: (§1) Effects of pH, PIP2 and size classes: Streptavidin-coated 96-well plates (G-Biosciences, St. Louis, MO) were pre-loaded with biotinylated peptides [see Example 1] at 400 ng/well, at room temperature for 60 minutes. The plate was washed with PBS buffer and then 1 ug FITC-labelled heparin or hyaluronic acid (FITC-HMW-HA) in 100 uL PBS buffer was added per well (all tests done in quadruplicate). Incubation proceeded for 90 minutes at room temperature, followed by two PBS washes. The plate was read in a standard laboratory fluorometer (488/525 nm exitation/[…]) and the counts normalized for immX3 peptide binding=100. Values statistically above background are shown in bold font. **p<0.05 versus immX3AVD.

recombinant CD44 protein = target: T1, recombinant CD44 protein (Homo sapiens, UniProt P16070); assay: Third binding experiment: CD44 binding to peptide/holotransferrin/hyaluronan complexes; conditions: for CD44 immunoreactivity, 1.5 ug/w HMW-HA: immX3AVD + 1.5 ug HMW-HA set to 100 AU; for CD44 immunoreactivity, CONTROL: no hyaluronan, 100 ng/well CD44
T1 construct: purchased Abcam, Waltham, MA
T1 sequence (P16070 21-742, species assumed): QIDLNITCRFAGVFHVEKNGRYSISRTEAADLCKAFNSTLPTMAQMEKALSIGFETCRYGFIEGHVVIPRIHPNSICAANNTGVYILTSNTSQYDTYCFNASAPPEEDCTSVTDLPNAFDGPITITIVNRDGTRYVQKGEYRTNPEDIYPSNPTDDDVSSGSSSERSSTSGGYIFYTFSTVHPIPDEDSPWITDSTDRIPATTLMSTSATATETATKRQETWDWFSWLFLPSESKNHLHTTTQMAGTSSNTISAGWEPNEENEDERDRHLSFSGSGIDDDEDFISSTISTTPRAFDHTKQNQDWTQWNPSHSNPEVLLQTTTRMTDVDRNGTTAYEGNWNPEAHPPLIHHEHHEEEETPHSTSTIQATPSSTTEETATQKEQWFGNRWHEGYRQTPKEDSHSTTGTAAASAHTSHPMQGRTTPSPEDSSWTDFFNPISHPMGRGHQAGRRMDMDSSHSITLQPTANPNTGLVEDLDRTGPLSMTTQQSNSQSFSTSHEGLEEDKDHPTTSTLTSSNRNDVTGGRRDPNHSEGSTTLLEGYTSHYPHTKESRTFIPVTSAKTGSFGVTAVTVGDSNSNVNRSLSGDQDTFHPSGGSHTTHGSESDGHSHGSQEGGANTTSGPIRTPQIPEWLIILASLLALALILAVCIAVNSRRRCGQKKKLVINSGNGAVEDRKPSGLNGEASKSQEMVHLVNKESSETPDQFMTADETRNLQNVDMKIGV
Description: as §1
A third binding experiment was done as described above using immX3AVD peptide with or without 10 ug/well holotransferrin (holoTf) plus either 10 ug/well LMW-HA or either 1.5 ug or 10 ug HMW-HA/well in the binding step, followed by a buffer wash step. 100 ng/well pure recombinant CD44 protein (Abcam, Waltham, MA) was then added to the indicated wells, incubated for 60 minutes at room temperature and the plate was washed with buffer. Anti-CD44 monoclonal antibody (Abcam, Waltham, MA) was added towells at 1:200, incubated for 60 minutes at room temperature and the plate was then washed and developed by secondary antibody and TMB detection as recommended by the manufacturer. CD44 immunoreactivity was expressed in arbitrary immunoreactivity units (AU), with **p<0.05 versus immx3AVD+1.5 ug HMW-HA control, which was set to=100 AU.

[2] = tested on: C2C12 myoblastic cell line; assay: C2C12 myoblast differentiation, creatine kinase; type: cell-based; conditions: 0.66 uM peptide, 96 hours, relative to immX3AVD = 100
Description: Differentiation assays employed the C2C12 myoblastic cell line (ATCC, Manassas, VA) seeded at 2×10e5 cells per well in 96-well plates and cultured at 37 degrees C. in DMEM growth medium plus 10% fetal bovine serum and 1% penicillin/streptomycin. For differentiation, 10% fetal bovine serum was replaced with 2% horse serum. 0.66 uM peptide was then added, and incubation continued for an additional 96 hours. Plates with adherent cells were washed with PBS, lysed with Lytic-M buffer (Sigma Chemical Company, St. Louis, MO) and the lysates were assayed for creatine kinase using a kit purchased from Bioassay Systems (Cat. #ECPK-100, Hayward, CA). Effects were visually confirmed with microscopy tracking myotube formation. Results were expressed as units per milliliter relative to the control immX3AVD peptide, and p values were also calculated and shown relative to control immX3AVD peptide (** p<0.05 versus immX3AVD control; avg±SD).

[3] = tested on: Primary human T-cells pre-selected for recognizing GAD65 peptide antigen; assay: GAD65-specific primary T-cell differentiation on peptide-treated THP1-Dual cells; type: cell-based; conditions: peptide 0.66 uM, GAD65 1 ug/ml
Description: Mammalian cell differentiation assays employed the THP1-Dual monocyte reporter cell line (Invivogen Inc, San Diego, CA) seeded at 2×10e5 cells per well in 96-well plates and cultured at 37 degrees C. in RPMI-1640 growth medium plus 10% fetal bovine serum and 1% penicillin/streptomycin. Cells were subsequently treated for 24 hours with 100 ng/ml Phorbol 12-myristate 13-acetate (PMA protocol; Cayman Chemical Company, Ann Arbor, MI). Peptide (0.33 uM or 0.66 uM, as indicated) was then added, and incubation continued for an additional 24 hours. Culture supernatants were assayed for CCL22. Plates with adherent cells were washed with PBS and assayed for immunoreactivity of surface markers such as CD169, Clec9a or Clec12a using fuorescent tag- or biotin-labeled anti-human antibodies purchased from Miltenyi Biotec (Auburn, CA) and the secondary detection reagent recommended by the manufacturer.
Another non-myeloid lineage was also tested. Primary human T-cells pre-selected for recognizing GAD65 peptide antigen, and the peptide antigen itself were purchased from Cellero LLC (Memphis, TN). THP1-Dual cells were treated with both GAD65 peptide antigen (1 ug/ml) and immodulin peptide (0.66 uM) using the protocol described in Example 2. After completion of the myeloid cell differentiation step (24 hours), supernatants were collected and 100,000 primary T-cells were added to each well in RPMI-1640 medium (100 uL per well). Plates were incubated for an additional 96 hours and cell extracts were prepared using CellLytic-M reagent (Sigma Chemical Co., St Louis, MO). Supernatants were assayed for CCL22, IL-10 and TGFbeta, and cell extracts assayed for FoxP3, all by ELISA using reagents from R&D Systems, Minneapolis, MN. The results are shown in the table below (**p<0.05 vs immX3AVD, set to=100): […]

[4] = tested on: Osteoblast cell line MC3T3E1; assay: MC3T3E1 osteoblast differentiation, alkaline phosphatase; type: cell-based; conditions: peptide 0.66 uM, 5 days, immX3AVD = 100
Description: Yet another non-myeloid lineage was tested. Osteoblast cell line MC3T3E1 was purchased from ATCC (Manassas, VA) and grown in 96-well plates in alpha-MEM medium supplemented with 50 ug/ml ascorbic acid and 5 mM beta-glycerophosphate. Peptides were added and incubation proceeded for 5 days. Cells were washed with PBS buffer and extracts prepared using 100 uL 1X RIPA buffer (Cayman Chemical Company; Ann Arbor, MI) per well. Alkaline phosphatase was measured using 0.37 mg/ml 4-nitrophenyl phosphate in DEA buffer (both reagents purchased from Cayman Chemical Company) by measuring the slope of absorbance at 405 nm using a spectrophotometer. 10 uL of RIPA extract was used for each assay. Separately, protein concentration of extract was measured using a commercial kit. Values were corrected for protein concentration. Results are shown below (**p<0.05 vs immX3AVD=100): […]

## CC(C)[C@H](NC(=O)[C@H](C)NC(=O)[C@H](Cc1c[nH]c2ccccc12)NC(=O)[C@H](CS)NC(=O)[C@H](Cc1ccccc1)NC(=O)CNC(=O)[C@H](CCCNC(=N)N)NC(=O)[C@H](CCCCN)NC(=O)[C@H](CCCNC(=N)N)NC(=O)CNC(=O)[C@H](CCCCN)NC(=O)[C@H](CO)NC(=O)[C@@H]1CCCN1C(=O)[C@H](CCCNC(=N)N)NC(=O)[C@H](CS)NC(=O)[C@H](CCC(N)=O)NC(=O)[C@H](CCCCN)NC(=O)[C@H](CCCCN)NC(=O)[C@H](CCCCN)NC(=O)[C@H](Cc1ccc(O)cc1)NC(=O)[C@H](Cc1ccccc1)NC(=O)CNC(=O)[C@H](CCCCN)NC(=O)[C@@H](N)CCCCN)C(=O)N[C@@H](CC(=O)O)C(=O)O [immX3AVD] (H-KKGFYKKKQCRPSKGRKRGFCWAVD-OH)
[1]
  Hyaluronate binding (fluorescence counts): 100.0 ± 22.8
Recombinant CD44 protein; pH 5.2
  CD44 immunoreactivity, 10 ug/w HMW-HA: 105.1 ± 11.4 AU
  CD44 immunoreactivity, 10 ug/w LMW-HA: 102.6 ± 17.9 AU
  CD44 immunoreactivity, 1.5 ug/w HMW-HA: 100.0 ± 4.6 AU
  CD44 immunoreactivity, CONTROL: 13.2 ± 22.0** AU
Recombinant CD44 protein; pH 7.4
  CD44 immunoreactivity, 10 ug/w HMW-HA: 101.1 ± 4.9 AU
  CD44 immunoreactivity, 10 ug/w LMW-HA: 103.0 ± 19.4 AU
  CD44 immunoreactivity, 1.5 ug/w HMW-HA: 100.0 ± 15.5 AU
  CD44 immunoreactivity, CONTROL: 19.6 ± 13.0** AU
[2]; helper D-raffinose (1 mM)
  Creatine Kinase Act.: 140.3 ± 8.3** units per milliliter
[2]; helper GW 3965 (2 uM)
  Creatine Kinase Act.: 67.4 ± 5.2** units per milliliter
[2]; helper GW 501516 (2 uM)
  Creatine Kinase Act.: 174.2 ± 5.0** units per milliliter
[2]; helper L-ornithine (1 mM)
  Creatine Kinase Act.: 161.5 ± 6.5** units per milliliter
[2]; helper Tf (holotransferrin 2 ug/ml)
  Creatine Kinase Act.: 120.6 ± 2.5** units per milliliter
[2]; helper Tf + HMW-HA (2 ug/ml)
  Creatine Kinase Act.: 33.2 ± 3.2 # units per milliliter
[2]; helper Tf + LMW-HA (2 ug/ml)
  Creatine Kinase Act.: 136.7 ± 13.3 units per milliliter
[2]; helper ciprofibrate (2 uM)
  Creatine Kinase Act.: 109.4 ± 3.2** units per milliliter
[2]; helper none
  Creatine Kinase Act.: 100.0 ± 2.2 units per milliliter
[3]; cell extracts, immX3AVD = 100
  FoxP3 (AU): 100.0 ± 20.5 AU
[3]; supernatant
  CCL22: 88.8 ± 13.6 pg/mL
  IL-10: 1331 ± 94.3 pg/mL
  TGFb: 131.4 ± 41.4 pg/mL
[4]; compound added: None
  Alk. Phos. Activity: 100.0 ± 0.5
[4]; plus 2 uM Ciprofibrate
  Alk. Phos. Activity: 127.2 ± 2.7**
[4]; plus 2 uM GW 3965
  Alk. Phos. Activity: 59.1 ± 4.3**
[4]; plus 2 uM GW 501516
  Alk. Phos. Activity: 168.7 ± 3.0**
[4]; plus 1 mM D-raffinose
  Alk. Phos. Activity: 134.6 ± 4.6**
[4]; plus 1 mM L-ornithine
  Alk. Phos. Activity: 159.7 ± 4.4**
